The values that follow come from ChEMBL document CHEMBL1134086, “Discovery of potent and selective phenylalanine derived CCR3 receptor antagonists. Part 2” (Bioorg Med Chem Lett, 2001).

pIC50: −log10 of the molar value.

One experiment is filed under the species Homo sapiens. Kind of experiment: Ability to block the eotaxin induced intracellular calcium mobilization in primary human eosinophils was determined. Type of experiment: functional. (Calcium assays in cells follow changes in intracellular calcium, usually with a dye or a luminescent sensor.)
The term pIC50 denotes the IC50 on a negative log10 scale, so that one unit is a factor of ten. As to `C[C@H](NC(=O)[C@H](Cc1ccc(Cl)cc1)NC(=O)c1cccc2ccccc12)C(=O)Nc1ccccc1`, the pIC50 is 7.82. On the same count and under the same terms, then `COC(=O)[C@H](Cc1ccc([N+](=O)[O-])cc1)NC(=O)c1cccc2ccccc12`, with 7.42; and `O=C(N[C@@H](Cc1ccc([N+](=O)[O-])cc1)C1=NCCO1)c1cccc2ccccc12`, with 6.22.

A further experiment deals with T1, C-C chemokine receptor type 3 (Homo sapiens, UniProt P51677).
T1 sequence (P51677 whole entry): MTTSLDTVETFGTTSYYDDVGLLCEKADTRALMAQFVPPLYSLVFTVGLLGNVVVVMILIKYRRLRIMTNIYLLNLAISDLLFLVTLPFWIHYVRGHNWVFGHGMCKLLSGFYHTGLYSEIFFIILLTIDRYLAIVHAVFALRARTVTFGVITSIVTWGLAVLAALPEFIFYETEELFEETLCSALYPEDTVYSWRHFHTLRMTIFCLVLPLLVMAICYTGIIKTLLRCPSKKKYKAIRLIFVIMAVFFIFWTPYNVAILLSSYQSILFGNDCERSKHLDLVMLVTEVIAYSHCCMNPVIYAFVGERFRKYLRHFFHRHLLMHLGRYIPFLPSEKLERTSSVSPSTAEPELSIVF
As to the kind of experiment: Antagonist activity against C-C chemokine receptor type 3. Type of experiment: functional.
For the compound `COc1ccc(NC(=O)[C@H](C)NC(=O)[C@H](Cc2ccncc2)NC(=O)c2cccc3ccccc23)cc1`, the pIC50 was less than 5.91. Still for that read-out and setting: in the case of `COc1ccccc1NC(=O)[C@H](C)NC(=O)[C@H](Cc1ccc(C#N)cc1)NC(=O)c1cccc2ccccc12` it was 6.90; in that of `C[C@H](NC(=O)[C@H](Cc1cscn1)NC(=O)c1cccc2ccccc12)C(=O)Nc1ccc(Cl)cc1`, 6.10. In turn, `CCOC(=O)c1coc([C@H](Cc2ccc([N+](=O)[O-])cc2)NC(=O)c2cccc3ccccc23)n1` gave a pIC50 of 6.30.

Regarding `C[C@H](NC(=O)[C@H](Cc1ccc(Cl)cc1)NC(=O)c1cccc2ccccc12)C(=O)Nc1ccccc1`, the negative-log IC50 (pIC50) was 8.30. The same measure, in the same setting: then `O=C(N[C@@H](Cc1ccc([N+](=O)[O-])cc1)c1nnco1)c1cccc2ccccc12` (racemic), with less than 4.48; and `CCn1ccnc1[C@H](Cc1ccc([N+](=O)[O-])cc1)NC(=O)c1cccc2ccccc12` (racemic; form 1), with less than 4.48. On the same count and under the same terms, in the case of `COc1ccc(C[C@H](NC(=O)c2cccc3ccccc23)C(=O)N[C@@H](C)C(=O)Nc2ccc(C#N)cc2)cc1` it was 6.60. The same measure, in the same setting: then `O=C(N[C@@H](Cc1ccc([N+](=O)[O-])cc1)c1ncco1)c1cccc2ccccc12` (racemic), with less than 4.48; and `CCn1ccnc1[C@H](Cc1ccc([N+](=O)[O-])cc1)NC(=O)c1cccc2ccccc12` (racemic; form 3), with 4.77; and `C[C@H](NC(=O)[C@H](Cc1ccc(Cl)cc1)NC(=O)c1cccc2ccccc12)C(=O)Nc1cccnc1`, with 7.57. Turning to `CC(NC(=O)[C@H](Cc1ccc([N+](=O)[O-])cc1)NC(=O)c1cccc2ccccc12)C(=O)NCc1ccccc1` (some centres not stated), the pIC50 is 6.52. Compound `CCOC(=O)[C@H](C)NC(=O)[C@H](Cc1ccc([N+](=O)[O-])cc1)NC(=O)c1cccc2ccccc12` showed a pIC50 of 6.42. On the same count and under the same terms, in the case of `CCOC(=O)[C@@H](C)NC(=O)[C@H](Cc1ccc([N+](=O)[O-])cc1)NC(=O)c1cccc2ccccc12` it was 8.52; in that of `COc1ccc(NC(=O)[C@H](C)NC(=O)[C@H](CC2CCCCC2)NC(=O)c2cccc3ccccc23)cc1`, 6.15; in that of `COc1ccc(NC(=O)[C@H](C)NC(=O)[C@H](Cc2ccc(Cl)cc2)NC(=O)c2cccc3ccccc23)cc1`, 7.35. Compound `CCOC(=O)C1COC([C@H](Cc2ccc([N+](=O)[O-])cc2)NC(=O)c2cccc3ccccc23)=N1` (some centres not stated) had a negative logarithm of the IC50 (pIC50) of 6.67. Same read-out and setting: in the case of `Cc1ccc(C(=O)N[C@@H](Cc2ccc(Cl)cc2)C(=O)N[C@@H](C)C(=O)Nc2ccc(Cl)cc2)c(C)c1` it was 7.35.

`O=C(N[C@@H](Cc1ccc([N+](=O)[O-])cc1)C1=NCCO1)c1cccc2ccccc12` gave a pIC50 of 6.25. On the same count and under the same terms, then `CCn1ccnc1[C@H](Cc1ccc([N+](=O)[O-])cc1)NC(=O)c1cccc2ccccc12` (racemic; form 2), with less than 4.48; and `CC(NC(=O)[C@H](Cc1ccc([N+](=O)[O-])cc1)NC(=O)c1cccc2ccccc12)C(=O)N1CCCC1` (some centres not stated), with 5.95; and `CCNC(=O)c1csc([C@H](Cc2ccc([N+](=O)[O-])cc2)NC(=O)c2cccc3ccccc23)n1`, with 4.74. The same measure, in the same setting: then `C[C@H](NC(=O)[C@H](Cc1ccc([N+](=O)[O-])cc1)NC(=O)c1cccc2ccccc12)C(=O)N(C)c1ccccc1`, with 6.22. For the compound `C=C(NC(=O)[C@H](Cc1ccc([N+](=O)[O-])cc1)NC(=O)c1cccc2ccccc12)C(=O)OCC`, the negative logarithm of the IC50 (pIC50) is 6.46. On the same count and under the same terms, then `COc1ccc(NC(=O)[C@H](C)NC(=O)[C@H](Cc2cscn2)NC(=O)c2cccc3ccccc23)cc1`, with 6.30; and `C[C@H](NC(=O)[C@H](Cc1ccncc1)NC(=O)c1cccc2ccccc12)C(=O)Nc1ccc(-c2ccccc2)cc1`, with 6.22. The same measure, in the same setting: then `O=C(N[C@@H](Cc1ccc([N+](=O)[O-])cc1)c1nc(C(=O)N2CCc3ccccc3C2)cs1)c1cccc2ccccc12`, with 4.90; and `O=C(N[C@@H](Cc1ccc([N+](=O)[O-])cc1)c1nccs1)c1cccc2ccccc12`, with 4.49.

`C[C@@H](NC(=O)[C@H](Cc1ccc([N+](=O)[O-])cc1)NC(=O)c1cccc2ccccc12)C(=O)OC(C)(C)C` showed a pIC50 of 7.70. `O=C(N[C@@H](Cc1ccc([N+](=O)[O-])cc1)C(=O)N[C@H](C(=O)Nc1ccccc1)c1ccccc1)c1cccc2ccccc12` showed a pIC50 of 6.94. The same measure, in the same setting: in the case of `O=C(Nc1ccccc1)c1csc([C@H](Cc2ccc([N+](=O)[O-])cc2)NC(=O)c2cccc3ccccc23)n1` it was 5.11; in that of `COc1ccc(C[C@H](NC(=O)c2cccc3ccccc23)C(=O)N[C@@H](C)C(=O)Nc2ccccc2OC)cc1`, 7.82; in that of `CCOC(=O)c1csc([C@H](Cc2ccc([N+](=O)[O-])cc2)NC(=O)c2cccc3ccccc23)n1`, 6.18.

In turn, `CCNC(=O)C(C)NC(=O)[C@H](Cc1ccc([N+](=O)[O-])cc1)NC(=O)c1cccc2ccccc12` (some centres not stated) showed a negative logarithm of the IC50 (pIC50) of 6.18. Regarding `COc1ccc(NC(=O)[C@H](C)NC(=O)[C@H](Cc2ccc(C#N)cc2)NC(=O)c2cccc3ccccc23)cc1`, the pIC50 was 7.05. Turning to `C[C@@H](C(=O)Nc1ccccc1)N(C)C(=O)[C@H](Cc1ccc([N+](=O)[O-])cc1)NC(=O)c1cccc2ccccc12`, the pIC50 was 7.19. Still for that read-out and setting: in the case of `O=C(N[C@@H](Cc1ccc([N+](=O)[O-])cc1)c1cnco1)c1cccc2ccccc12` (racemic) it was 4.65; in that of `C[C@H](NC(=O)[C@H](Cc1ccc([N+](=O)[O-])cc1)NC(=O)c1cccc2ccccc12)C(=O)Nc1ccccc1`, 6.72; in that of `O=C(CNC(=O)[C@H](Cc1ccc([N+](=O)[O-])cc1)NC(=O)c1cccc2ccccc12)Nc1ccccc1`, 6.40.
